Measurements as given in ChEMBL document CHEMBL1146149, “The development of 2-benzimidazole substituted pyrimidine based inhibitors of lymphocyte specific kinase (Lck)” (Bioorg Med Chem Lett, 2006).
≈ marks a conversion by molar mass, not a printed value.

Experiments:
[1] = system: Jurkat; test: Inhibition of IL2 production in Jurkat E6-1 T cells by ELISA; details: Homo sapiens
[2] = Aqueous solubility at pH 7.4; format: physicochemical
[3] = Loss of metabolic stability in Sprague-Dawley rat hepatocytes after 1 hr at 1 uM; format: ADME, cell-based, Hepatocyte; details: read-out: Activity
[4] = target: Tyrosine-protein kinase Lck (Homo sapiens, UniProt P06239)
Tyrosine-protein kinase Lck, sequence (P06239 whole entry): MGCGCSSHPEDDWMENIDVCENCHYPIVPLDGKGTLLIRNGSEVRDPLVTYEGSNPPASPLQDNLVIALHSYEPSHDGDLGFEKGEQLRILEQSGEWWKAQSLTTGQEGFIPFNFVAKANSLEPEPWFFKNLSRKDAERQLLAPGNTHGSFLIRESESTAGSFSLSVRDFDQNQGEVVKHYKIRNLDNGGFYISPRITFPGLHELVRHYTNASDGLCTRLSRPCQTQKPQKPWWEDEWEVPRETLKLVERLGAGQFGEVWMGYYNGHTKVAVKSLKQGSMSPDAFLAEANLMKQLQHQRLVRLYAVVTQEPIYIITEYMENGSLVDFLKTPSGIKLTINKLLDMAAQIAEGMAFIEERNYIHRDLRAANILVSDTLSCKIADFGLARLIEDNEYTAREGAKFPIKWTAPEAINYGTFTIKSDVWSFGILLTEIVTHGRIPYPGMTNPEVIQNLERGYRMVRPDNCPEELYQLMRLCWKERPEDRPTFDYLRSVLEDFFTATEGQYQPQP
Description: Inhibition of human recombinant Lck by ProFlour assay

[5] = target: Proto-oncogene tyrosine-protein kinase Src (Homo sapiens, UniProt P12931); test: Inhibition of human recombinant Src by ProFlour assay
Proto-oncogene tyrosine-protein kinase Src, sequence (P12931 2-536 limits assumed): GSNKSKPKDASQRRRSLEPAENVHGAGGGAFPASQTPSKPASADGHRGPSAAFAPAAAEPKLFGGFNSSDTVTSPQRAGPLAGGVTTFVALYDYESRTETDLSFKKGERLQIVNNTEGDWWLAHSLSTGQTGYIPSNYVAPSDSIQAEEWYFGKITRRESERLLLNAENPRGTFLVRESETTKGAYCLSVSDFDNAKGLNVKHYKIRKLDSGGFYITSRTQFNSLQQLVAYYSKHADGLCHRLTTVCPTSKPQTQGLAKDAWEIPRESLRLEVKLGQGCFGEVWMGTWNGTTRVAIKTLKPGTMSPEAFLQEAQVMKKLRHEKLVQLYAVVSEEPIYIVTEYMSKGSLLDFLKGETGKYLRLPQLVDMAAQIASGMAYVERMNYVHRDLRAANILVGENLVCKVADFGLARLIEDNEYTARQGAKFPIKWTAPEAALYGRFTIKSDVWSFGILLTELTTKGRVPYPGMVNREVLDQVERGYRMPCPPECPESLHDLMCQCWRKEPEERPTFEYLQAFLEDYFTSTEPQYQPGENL

| IC50 [1] [nM] | solubility [2] [µg/mL] | metabolised at 1 h, 1 µM [3] [%] | IC50 [4] [µM] | IC50 [5] [nM] | SMILES |
| --- | --- | --- | --- | --- | --- |
| 2280 | 54 (≈ 118 µM) | 39 |  |  | Cc1ccc(O)cc1Nc1cc(NCCN2CCN(C)CC2)nc(-n2cnc3ccccc32)n1 |
| 163 | 40 (≈ 93.3 µM) |  |  |  | Cc1ccc(O)cc1Nc1cc(CC2CCN(C)CC2)nc(-n2cnc3ccccc32)n1 |
| 54 | 3 (≈ 6.72 µM) | 48 |  |  | Cc1ccc(O)cc1Nc1cc(OCCN2CCOCC2)nc(-n2cnc3ccccc32)n1 |
| 400 | 70 (≈ 152 µM) | 35 |  |  | Cc1ccc(O)cc1Nc1cc(OCCN2CCN(C)CC2)nc(-n2cnc3ccccc32)n1 |
| 1270 | 27 (≈ 58.6 µM) |  |  |  | COc1ccc(C)c(Nc2cc(OCCN3CCOCC3)nc(-n3cnc4ccccc43)n2)c1 |

More lines, now with the values behind:

| SMILES | IC50 [1] [nM] | solubility [2] [µg/mL] | metabolised at 1 h, 1 µM [3] [%] | IC50 [4] [µM] | IC50 [5] [nM] |
| --- | --- | --- | --- | --- | --- |
| COc1ccc(C)c(Nc2nccc(-n3cnc4ccccc43)n2)c1 |  |  |  | > 10 |  |
| Cc1ccc(O)cc1Nc1cc(N2CCN(C)CC2)nc(-n2cnc3ccccc32)n1 |  | ≤ 0.1 |  |  |  |
| Cc1ccc(F)cc1Nc1ccnc(-n2cnc3ccccc32)n1 |  |  |  | > 10 |  |
| Cc1ccc(O)cc1Nc1cc(-n2cnc3ccccc32)ncn1 |  |  |  | > 10 |  |
| Cc1ccc(O)cc1Nc1cc(NCCCN(C)C)nc(-n2cnc3ccccc32)n1 | 2200 | 55 (≈ 132 µM) | 48 |  |  |
| Oc1cccc(Nc2nccc(-n3cnc4ccccc43)n2)c1 |  |  |  | > 10 |  |
| CCN(CC)CCNc1cc(Nc2cc(O)ccc2C)nc(-n2cnc3ccccc32)n1 | 549 | 127 (≈ 294 µM) | 45 |  | 162 |
